Where two headings read alike, the source gives them in different places.
How the values were obtained:
[1] = rats, i.v.; cited from earlier work
K. pneumoniae N11-2218 [2] = experiment: Microdilution checkerboard / MIC; format: cell-based, Klebsiella pneumoniae; settings: meropenem alone
Experimental: FIC values were determined by standard methods^27 setting up checkerboards with 8 concentrations of each meropenem and AM-A in serial ½ dilutions. Experiments were done in duplicate and the mean used for calculation. The MIC for each compound was the lowest concentration of compound showing no growth. The FIC for each compound was calculated as the concentration of the compound in the presence of co-compound for a well showing no growth, divided by the MIC for that compound. The FIC index is the sum of the two FICs.

K. pneumoniae N11-2218 [3] = experiment: Mouse systemic infection, organ bacterial load; format: in vivo, CD1 mice; settings: meropenem alone, doses below 50 mg/kg
Text: (§1) All animals were housed in specific pathogen-free units in the Central Animal Facility at McMaster University. All experimental protocols were approved by, and performed in accordance with the McMaster Animal Research Ethics Board. Female CD1 mice were purchased from Charles River.
(§2) Mice were infected intraperitoneally (ip) with a dose of 2×10^6 colony forming units (cfu) of Klebsiella pneumoniae N11-2218 for all organ bacterial load experiments, or with a dose of 5×10^7cfu for all survival experiments. For all organ bacterial load experiments, mice were euthanized 48 hours post infection, and spleen and liver were harvested. Organs were placed into 1 mL sterile PBS on ice, and then homogenized (Mixer Mill 400; Retsch). Organ homogenates were then serially diluted in PBS, and plated on Brilliant Green agar (Oxoid) for cfu enumeration. For survival curves, mice were monitored for endpoint. For all experiments, mice were treated 30 minutes post infection with a specified subcutaneous dose of either PBS, meropenem, AM-A inhibitor, or a combination of both antibiotic and inhibitor.

K. pneumoniae N11-2218 [4] = experiment: Mouse lethal systemic infection, survival; format: in vivo, CD1 mice; settings: monotherapy (alone)
Text: as §1, §2

For `O=C(O)CN[C@H](CN[C@@H](CC(=O)O)C(=O)O)C(=O)O` [AM-B, aspergillomarasime B], the LD50 [1] is listed as 660 mg/kg.
For `C[C@@H](O)[C@H]1C(=O)N2C(C(=O)O)=C(S[C@@H]3CN[C@H](C(=O)N(C)C)C3)[C@H](C)[C@H]12` [meropenem, reference compound], the MIC (K. pneumoniae N11-2218 [2]; Klebsiella pneumoniae, N112218, read-out: MIC) was 32 µg/mL, the MIC (K. pneumoniae N11-2218 [2]) was 32 µg/mL and the “response of infection to meropenem monotherapy” value (K. pneumoniae N11-2218 [3]) was “resistant”. For the same compound, the “prevention of lethal infection” value (K. pneumoniae N11-2218 [4]) was “unable to prevent lethal infection”.
